Reference: patent US20140162879A1, “SYNERGISTIC WEED CONTROL FROM APPLICATIONS OF AMINOCYCLOPYRACHLOR AND 2,4 DICHLOROPHENOXYACETIC ACID (2,4-D)” (Dow AgroSciences LLC, priority 2012, published 2014)
Structures can show the parent of a compound that is named as a salt.

How the values were obtained:
[1] = tested on: Senna obtusifolia (CASOB, java bean); assay: Field trial, post-emergence foliar application, weed control rating; type: in vivo
Experimental: (§1) As described in the Herbicide Handbook of the Weed Science Society of America, Ninth Edition, 2007, p. […] In some embodiments, the damage or injury to the undesired vegetation caused by the compositions and methods disclosed herein is evaluated using a scale from 0% to 100%, when compared with the untreated control vegetation, wherein 0% indicates no damage to the undesired vegetation and 100% indicates complete destruction of the undesired vegetation. […] 22 (1967)
(§2) Field trials were conducted with applications made to established grassland with naturally occurring weed populations. The target plants were treated with postemergence foliar applications when they were at the beginning of flowering stage and 50 centimeters (cm) (19.7 inches (in)) tall for Senna obtusifolia plants and at the flowering stage and 70-90 cm (27.6-35.4 in) for Melochia parviflora plants. All treatments were applied using a randomized complete block trial design, with 4 replications per treatment.
(§3) Treatments consisted of aminocyclopyrachlor in acid form and the dimethylamine salt of 2,4-D, each in water and applied alone or in combination. Spray solutions were prepared using an appropriate amount of dilution to form a 2.4 liter (L) aqueous spray solution with active ingredients in single and two way combinations. Formulated compounds were applied to the plant material with a backpack sprayer equipped with 8003 nozzles calibrated to deliver 42.8 gallons per acre (gal/acre) (400 liters per hectare (L/ha)) at a spray height of 18-20 inches (45-51 centimeters (cm)) above average plant canopy.
(§4) The treated plants were Senna obtusifolia (CASOB, java bean), or Melochia parviflora (MEOPA). The treated plots and control plots were rated blind at various intervals after application. Ratings were based on a scale of 0-100%, as discussed above, wherein 0% indicates no damage to the undesired vegetation and 100% indicates complete destruction of the undesired vegetation
(§5) Colby's equation was used to determine the herbicidal effects expected from the mixtures, as described above. The results were measured at 42 days or 58-62 days after the first application of the compositions. […] The herbicide tank mix combinations tested, application rates and ratios employed, plant species tested, and results are given below.

[2] = tested on: Melochia parviflora (MEOPA); assay: as above; type: in vivo; settings: 58-62 days
Experimental: as §1, §2, §3, §4, §5

O=C(O)COc1ccc(Cl)cc1Cl [Dimethylamine salt of 2,4-D, 2,4-dichlorophenoxyacetic acid]
Mean % weed control ([1]; dimethylamine salt of 2,4-D alone 1120 g ae/ha, 42 days): 64.3%
Mean % weed control ([2]; dimethylamine salt of 2,4-D alone 1120 g ae/ha): 24.4%

Nc1nc(C2CC2)nc(C(=O)O)c1Cl [Aminocyclopyrachlor, 6-amino-5-chloro-2-cyclopropylpyrimidine-4-carboxylic acid]
Mean % weed control ([1]; aminocyclopyrachlor alone 35 g ae/ha, 42 days after application): 72.0%
Mean % weed control ([2]; aminocyclopyrachlor alone 35 g ae/ha): 6.8%
Mean % weed control ([2]; aminocyclopyrachlor alone 70 g ae/ha): 10.0%
Mean % weed control ([2]; aminocyclopyrachlor alone 140 g ae/ha): 52.1%
Mean % weed control ([2]; aminocyclopyrachlor alone 210 g ae/ha): 81.8%
